Ends that are not written are not given here. * marks the point of attachment. Fmoc = O=C(OCC1c2ccccc2-c2ccccc21)*
Assay: Rheological studies of the hydrogel (strain, frequency, shear rate, time sweep, step strain)
Format: physicochemical
Settings: fixed strain 0.1%, frequency 5 Hz, 37° C.

Fmoc-Phe-Phe [FmocFF]
storage modulus G′: 4,708 Pa

— patent US20240358889A1, “PEPTIDE-CONTAINING HYBRID HYDROGEL FOR BONE REGENERATION” (Ramot at Tel-Aviv University Ltd., priority 2022, published 2024)
